Source: US8497241B2, “WNT10-derived peptide and use thereof” (Caregen Co., Ltd., priority 2009, dated 2013)
Entries after “also recorded” stand apart in the source; their conditions may differ.

Key:
[1] = system: fibronectin; assay: Fibronectin ELISA in NIH3T3 fibroblasts; type: cell-based; conditions: NIH3T3, FIG. 9b
Method: To verify whether the peptides synthesized in preparation Example 1 enhances the expression of fibronectin as a WNT target protein, NIH3T3 fibroblasts (4×10^3 cells) was added to each well of 96-well plates and cultured under 5% CO2 for 24 hr at 37° C. After 24-hr culture, the medium was changed with a fresh medium without serum and cells were treated with empty sample (for normalization), three peptides synthesized (1 μg/ml) and peptide complex (1 μg/ml) aseptically dissolved in 10% DMSO for 3 hr, 10 hr, 24 hr or 48 hr under the same conditions as described above. After 72 hr incubation, the cell culture was collected and the expression level of fibronectin was measured using Fibronectin ELISA kit (R&D systems, USA).

[2] = system: Ki-67 protein; assay: Mouse hair follicle culture, Ki-67 immunostaining; type: cell-based; conditions: 5 days culture, FIG. 13d
[3] = system: WNT protein; assay: Mouse hair follicle culture, WNT protein immunostaining; type: cell-based; conditions: 5 days culture, FIG. 13c
[4] = system: β-catenin; assay: Mouse hair follicle culture, β-catenin immunostaining; type: cell-based; conditions: 5 days culture, FIG. 13b
[5] = system: Hair follicle of Balb/C mouse; assay: Mouse hair follicle culture, H&E staining; type: cell-based; conditions: 5 days culture, FIG. 13a
Method: Hair follicle of Balb/C mouse hair was dissected with a surgical mess and washed with ethanol, followed by additionally washing with PBS and DMEM culture solution. Hereafter, hair follicles were incubated with 5 μg/ml of each peptide complex dissolved in DMEM culture solution, and cultured under 5% CO2 for 5 days at 37° C. After 5 days-culture, hair follicles were prepared as a paraffin block and each tissue treated with control, peptide complex, DKK-1, and DKK-1 and peptide complex was stained and compared using H&E staining (FIGS. 13a-13d).

[6] = system: β-catenin; assay: Western blot of β-catenin in HaCaT keratinocytes; type: cell-based; conditions: FIG. 6a; for expression level of β-catenin: 5 hr, single treatment; for β-catenin expression in the presence of DKK-1: treatment with both DKK-1 and peptide
Method: (§1) HaCaT kerationcytes cultured for 48 hr were incubated with the peptides synthesized in preparation Example 1 for 5 hr. The expression level of β-catenin was examined, which is an essential signal molecule to promote hair growth as a representative signaling of WNT protein. The amount of β-catenin was measured by Western blot analysis using an antibody against β-catenin (SantaCruz, USA). In addition, it was observed by an immunohistochemical assay using the same whether β-catenin is translocated into a nucleus. […] Besides, […] activities were also observed in cytosol as β-catenin is still present in cytosol (FIG. 6b).

[7] = system: HaCaT kerationcytes; assay: SRB colorimetric assay of cell growth in HaCaT keratinocytes; type: cell-based; conditions: 72 hr
Method: (§2) In order to evaluate three peptides prepared in Preparation Examples 1-2 whether they have similar activities of growth factor, SRB (Sulforhodamine B; Sigma-Aldrich) colorimetric assay was carried out using HaCaT kerationcytes (Korean Cell Line Bank) and NIH3T3 fibroblasts (Korean Cell Line Bank) according to Rizzino et al. method (Rizzino, et al. Cancer Res., 48: 4266 (1988)).
(§3) HaCaT ketatinocytes and NIH3T3 fibroblasts were cultured in 250 ml-flasks containing EMEM (Eagle's minimal essential media; Gibco, USA) supplemented with 10% FBS (fetal bovine serum; Sigma). Cells cultured were treated with 1% trypsin solution to detach cells from the bottom of culture flasks and centrifuged to collect cell pellets. After cells were resuspended in EMEM not containing FBS, its aliquot (3×10^3 cells) was added to each well of 96-well plates and cultured under 5% CO2 for 24 hr at 37° C. After 24-hr culture, the medium was changed with a fresh medium without serum and cells were incubated with empty sample (for normalization), three peptides synthesized (1 ng/ml, 10 ng/ml, 100 ng/ml, 1 μg/ml and 10 μg/ml) and peptide complex (1 μg/ml) aseptically dissolved in 10% DMSO for 72 hr under the same conditions as described above. […] In addition, absorbance at 590 nm was measured to analyze cell viability. […]

[8] = system: NIH3T3 fibroblasts; assay: SRB colorimetric assay of cell growth in NIH3T3 fibroblasts; type: cell-based
Method: as §2, §3

[9] = system: Ki-67 protein; assay: Ki-67 immunostaining (cell proliferation marker) in keratinocytes; type: cell-based; conditions: FIG. 4
[10] = system: C57BL/6 mouse; assay: Mouse hair growth, topical nanosome on back skin; type: in vivo; conditions: twice every day
From the text: The peptide synthesized in Preparation Example 1 was formulated into nanosome. Afterwards, the back of C57BL/6 mouse was partially removed and then the skin was topically administered with the nanosome twice every day for 15 days.

[11] = system: β-catenin; assay: Immunohistochemical assay of β-catenin translocation into nucleus in HaCaT keratinocytes; type: cell-based; conditions: FIG. 6b
Method: as §1

expression of Ki-67 protein in hair follicle, single treatment [2]	Substance	fibronectin expression, DKK-1 alone [1]	expression of WNT protein in hair follicle, single treatment [3]	expression of β-catenin in hair follicle, single treatment [4]	hair follicles (H&E), single treatment [5]	expression level of β-catenin ([6]; FIG. 8)	proliferation and cell shape under a microscope, keratinocytes ([7]; FIG. 3)	growth of keratinocytes ([7]; HaCaT, 1 ng/ml to 10 μg/ml, FIG. 2a)	expression level of fibronectin in treatment with both DKK-1 and peptide ([1]; listed as the present peptide)	proliferation and cell shape under a microscope, fibroblasts ([8]; 72 hr, FIG. 3)	growth of fibroblasts ([8]; NIH3T3, 72 hr, 1 ng/ml to 10 μg/ml, FIG. 2b)	expression of Ki-67 protein in keratinocytes [9]	hair growth on mouse back skin at 9 days-treatment ([10]; C57BL/6)	amount of hair in mouse back skin at 15 days-treatment compared with control group ([10]; C57BL/6, FIG. 12)	expression level of β-catenin ([6]; FIG. 8, listed as the present peptide)	β-catenin expression in the presence of DKK-1 [6]	β-catenin expression in the presence of DKK-1 ([6]; listed as the present peptide)	translocation of β-catenin to nucleus / β-catenin activity by immunostaining [11]	translocation of β-catenin to nucleus / β-catenin activity by immunostaining ([11]; listed as the present peptide)
suppressed	DKK-1: a WNT inhibitor and a β-catenin signaling inhibitor, hair loss gene	inhibited	inhibited	inhibited	degenerated	reduced													
	H-RQTRVQRCHC-OH (cysteine pairing not given here) [the peptide of the present invention]					significantly elevated	promotes proliferation of keratinocytes and fibroblasts, and changes their morphological shapes	notably increases the growth of keratinocytes	restored and enhanced; also recorded: recovered	promotes proliferation of keratinocytes and fibroblasts, and changes their morphological shapes	notably increases the growth	remarkably enhanced	growing hair was observed	much significantly enhanced	enhancement of β-catenin expression; also recorded: induces elevated activity of β-catenin	β-catenin activity is observed	re-increase of the expression of β-catenin; also recorded: restored and enhanced	elevated activity of β-catenin	contributes to translocation of β-catenin from cytosol to nucleus
